Source: patent US10668047B2, “Aziridine containing DNA alkylating agents” (priority 2015, dated 2020)
Read-outs that look alike come from different tables or passages of the source.

Test system: H460 non-cell lung cancer human tumor cell line
Assay: In vitro human tumor cell line cytotoxicity (proliferation) assay, AlamarBlue
Format: cell-based
Experimental: IC50 values are reported in micromolar and result from exposure of compound at various concentrations for 2 hrs followed by a wash step and addition of fresh media followed by growth and cell viability staining and comparison to a media only treated control.
Specifically, exponentially growing cells are seeded at a density of 4×10^3 cells per well in a 96 well plate and incubated at 37° C. in 5% CO2, 95% air and 100% relative humidity for 24 hours prior to addition of test compounds. Compounds are solubilized in 100% DMSO at 200 times the desired final test concentration. At the time of drug addition, compounds are further diluted to 4 times the desired final concentration with complete medium. Aliquots of 50 μl of compound at specified concentrations are added to microtiter wells already containing 150 μl of medium, resulting in the final drug concentration reported. After drug addition, the plates are incubated for an additional 2 hours at 37° C., 5% CO2, 95% air, and 100% relative humidity, then the drug is washed off and fresh medium is added and the plates are incubated for addition 70 hrs at 37° C., 5% CO2, 95% air and 100% relative humidity. At the end of this incubation, the viable cells are quantified using the AlamarBlue assay. The drug concentration resulting in growth inhibition of 50% (IC50) is calculated using Prism software (Irvine, Calif.), and the results are listed in the table.

[1] = Homo sapiens, NCI-H460, H460 cells, under air, 2 hrs exposure, wash, then 70 hrs growth, read-out: IC50 (air)
[2] = Homo sapiens, NCI-H460, H460 cells, under nitrogen, 2 hrs exposure, wash, then 70 hrs growth, read-out: IC50 (N2)
[3] = Homo sapiens, NCI-H460, read-out: IC50 (N2), H460 cells, under nitrogen, 2 hrs exposure, wash, then 70 hrs growth
[4] = Homo sapiens, NCI-H460, read-out: IC50 (air), H460 cells, under air, 2 hrs exposure, wash, then 70 hrs growth
[5] = H460 cells, under air, 2 hrs exposure, wash, then 70 hrs growth, read-out: IC50 (air)
[6] = H460 cells, under nitrogen, 2 hrs exposure, wash, then 70 hrs growth, read-out: IC50 (N2)

`Cn1c(C(OP(=O)(N2CC2)N2CC2)C(F)(F)F)cnc1[N+](=O)[O-]` (stereo not drawn) [compound 2118] gave an IC50 [1] of 6200 nM and an IC50 [2] of 10 nM.

`CCc1nc([N+](=O)[O-])n(C)c1COP(=O)(N1CC1)N1CC1` [compound 2119] was tested, and the IC50 [1] was 900 nM and the IC50 [2] was 30 nM.

For `CC(C)(C)C(OP(=O)(N1CC1)N1CC1)c1ccc([N+](=O)[O-])o1` (stereo not drawn) [compound 2127], the IC50 [1] was 18000 nM and the IC50 [2] was 20 nM.

Work on `Cn1c(C(OP(=O)(N2CC2)N2CC2)C(F)(F)C(F)(F)F)cnc1[N+](=O)[O-]` (stereo not drawn) [compound 2128] yielded an IC50 [1] of 18000 nM and an IC50 [2] of 20 nM.

`C=Cc1nc([N+](=O)[O-])n(C)c1COP(=O)(N1CC1)N1CC1` [compound 2129] gave an IC50 [1] of 700 nM and an IC50 [2] of 80 nM.

Compound `C=Cc1nc([N+](=O)[O-])n(C)c1COP(=O)(NCCBr)N1CC1` (stereo not drawn) [compound 2130] has an IC50 [3] of 5 nM and an IC50 [4] of 1300 nM.

Work on `Cn1c([N+](=O)[O-])cnc1COP(=O)(N1CC1)N1CC1` [compound 2136] yielded an IC50 [1] of 24000 nM and an IC50 [2] of 100 nM.

`Cn1c([N+](=O)[O-])nc(C(F)F)c1COP(=O)(N1CC1)N1CC1` [compound 2137] was tested, and the IC50 [1] was 2200 nM and the IC50 [2] was 20 nM.

`CC(OP(=O)(N1CC1)N1CC1)c1ccc([N+](=O)[O-])o1` (stereo not drawn) [compound 2138] was tested, and the IC50 [1] was 300 nM and the IC50 [2] was 6 nM.

Compound `O=[N+]([O-])c1ccc(C(OP(=O)(N2CC2)N2CC2)C(F)(F)F)o1` (stereo not drawn) [compound 2139] has an IC50 [1] of 300 nM and an IC50 [2] of 4 nM.

With `Cn1c([N+](=O)[O-])nc(-c2ccco2)c1COP(=O)(N1CC1)N1CC1` [compound 2141] the IC50 [1] was 500 nM and the IC50 [2] was 80 nM.

Compound `Cn1c([N+](=O)[O-])cnc1C(OP(=O)(N1CC1)N1CC1)C(F)(F)F` (stereo not drawn) [compound 2145] has an IC50 [1] of 170000 nM and an IC50 [2] of 400 nM.

`Cn1c([N+](=O)[O-])nc(CCN2CCOCC2)c1C(OP(=O)(N1CC1)N1CC1)C(F)(F)F` (stereo not drawn) [compound 2147] gave an IC50 [1] of 310000 nM and an IC50 [2] of 1100 nM.

In the case of `CCCCCCCC/C=C/CCCCCCCC(=O)N(C)Cc1nc([N+](=O)[O-])n(C)c1COP(=O)(N1CC1)N1CC1` [compound 2334], the IC50 [1] is reported as 140 nM and the IC50 [2] is reported as 9 nM.

For `CC(OP(=O)(N1CC1)N1CC1)c1ncc([N+](=O)[O-])n1C` (stereo not drawn) [compound 2501], the IC50 [1] was 21000 nM and the IC50 [2] was 50 nM.

`CC(C)C(OP(=O)(N1CC1)N1CC1)c1ncc([N+](=O)[O-])n1C` (stereo not drawn) [compound 2518] gave an IC50 [1] of 420000 nM and an IC50 [2] of 600 nM.

In the case of `Cn1c([N+](=O)[O-])cnc1C(OP(=O)(NCCBr)NCCBr)C1CC1` (stereo not drawn) [compound 2519], the IC50 [3] is reported as > 500000 nM and the IC50 [4] is reported as > 500000 nM.

For `Cn1c([N+](=O)[O-])cnc1C(OP(=O)(N1CC1)N1CC1)C1CC1` (stereo not drawn) [compound 2520], the IC50 [1] was 20000 nM and the IC50 [2] was 8800 nM.

With `Cn1c([N+](=O)[O-])nc(-c2sc(Br)c(Br)c2Br)c1COP(=O)(N1CC1)N1CC1` [compound 2523] the IC50 [1] was 400 nM and the IC50 [2] was 20 nM.

Work on `Cn1c([N+](=O)[O-])nc(-c2cc(Cl)c(Cl)s2)c1COP(=O)(N1CC1)N1CC1` [compound 2525] yielded an IC50 [1] of 700 nM and an IC50 [2] of 20 nM.

For `C=CCC(OP(=O)(N1CC1)N1CC1)c1ncc([N+](=O)[O-])n1C` (stereo not drawn) [compound 2527], the IC50 [1] was 39000 nM and the IC50 [2] was 90 nM.

`CCCC(OP(=O)(N1CC1)N1CC1)c1ncc([N+](=O)[O-])n1C` (stereo not drawn) [compound 2529] gave an IC50 [1] of 33000 nM and an IC50 [2] of 200 nM.

`Cn1c([N+](=O)[O-])cnc1C(OP(=O)(N1CC1)N1CC1)C(C)(C)C` (stereo not drawn) [compound 2535] showed an IC50 [1] of 500000 nM and an IC50 [2] of 26000 nM.

`CC(OP(=O)(N1CC1)N1CC1)c1ccc([N+](=O)[O-])cc1` (stereo not drawn) [compound 2537] was tested, and the IC50 [3] was 300 nM and the IC50 [4] was 53000 nM.

`Cn1c([N+](=O)[O-])cnc1C(OP(=O)(N1CC1)N1CC1)c1ccccc1` (stereo not drawn) [compound 2542] showed an IC50 [1] of 3400 nM and an IC50 [2] of 1500 nM.

Work on `CC(C)C(OP(=O)(N1CC1)N1CC1)c1ncc([N+](=O)[O-])n1CCN1CCOCC1` (stereo not drawn) [compound 2544] yielded an IC50 [1] of 45000 nM and an IC50 [2] of 200 nM.

In the case of `CC(OP(=O)(N1CC1)N1CC1)c1ccccc1[N+](=O)[O-]` (stereo not drawn) [compound 2547], the IC50 [1] is reported as 320000 nM and the IC50 [2] is reported as 2600 nM.

For `O=[N+]([O-])c1ccc(COP(=O)(N2CC2)N2CC2)cc1` [compound 2550], the IC50 [1] was 29000 nM and the IC50 [2] was 1800 nM.

With `CC(OP(=O)(N1CC1)N1CC1)c1ncc([N+](=O)[O-])n1C` (stereo not drawn) [compound 2551] the IC50 [5] was 20000 nM and the IC50 [6] was 100 nM.

`CC(OP(=O)(N1CC1)N1CC1)c1ncc([N+](=O)[O-])n1C` (stereo not drawn) [compound 2552] gave an IC50 [5] of 23000 nM and an IC50 [6] of 100 nM.

In the case of `COc1cc([N+](=O)[O-])ccc1COP(=O)(N1CC1)N1CC1` [compound 2554], the IC50 [1] is reported as 3000 nM and the IC50 [2] is reported as 100 nM.

Compound `Cc1cc([N+](=O)[O-])ccc1COP(=O)(N1CC1)N1CC1` [compound 2556] has an IC50 [1] of 17000 nM and an IC50 [2] of 700 nM.

`CC(OP(=O)(N1CC1)N1CC1)c1c([N+](=O)[O-])ncn1C` (stereo not drawn) [compound 2560] showed an IC50 [1] of 40000 nM and an IC50 [2] of 3700 nM.

For `Cn1c([N+](=O)[O-])cnc1C(OP(=O)(N1CC1)N1CC1)C1CCCC1` (stereo not drawn) [compound 2561], the IC50 [1] was 29000 nM and the IC50 [2] was 200 nM.

`O=[N+]([O-])c1ccccc1C(OP(=O)(N1CC1)N1CC1)c1ccccc1` (stereo not drawn) [compound 2563] was tested, and the IC50 [1] was 15000 nM and the IC50 [2] was 3200 nM.

For `CC(C)C(OP(=O)(N1CC1)N1CC1)c1ncc([N+](=O)[O-])n1C` (stereo not drawn) [compound 2567], the IC50 [5] was 270000 nM and the IC50 [6] was 300 nM.

`CC(C)C(OP(=O)(N1CC1)N1CC1)c1ncc([N+](=O)[O-])n1C` (stereo not drawn) [compound 2568] was tested, and the IC50 [5] was 350000 nM and the IC50 [6] was 300 nM.

For `C=CCC(OP(=O)(N1CC1)N1CC1)c1ccc([N+](=O)[O-])cc1OC` (stereo not drawn) [compound 2569], the IC50 [1] was 2000 nM and the IC50 [2] was 50 nM.

For `CC(C)C(OP(=O)(N1CC1)N1CC1)c1ccc([N+](=O)[O-])cc1` (stereo not drawn) [compound 2572], the IC50 [1] was 29000 nM and the IC50 [2] was 1600 nM.

With `C=CCCn1c([N+](=O)[O-])cnc1C(OP(=O)(N1CC1)N1CC1)C(C)C` (stereo not drawn) [compound 2574] the IC50 [1] was 29000 nM and the IC50 [2] was 100 nM.

`O=[N+]([O-])c1ccc(COP(=O)(N2CC2)N2CC2)c(Cl)c1` [compound 2576] showed an IC50 [1] of 1800 nM and an IC50 [2] of 100 nM.

Work on `O=[N+]([O-])c1ccccc1COP(=O)(N1CC1)N1CC1` [compound 2578] yielded an IC50 [1] of 28000 nM and an IC50 [2] of 6000 nM.

Compound `O=[N+]([O-])c1ccc(COP(=O)(N2CC2)N2CC2)cc1Cl` [compound 2579] has an IC50 [1] of 2600 nM and an IC50 [2] of 1300 nM.

Compound `Cc1cc(COP(=O)(N2CC2)N2CC2)ccc1[N+](=O)[O-]` [compound 2580] has an IC50 [1] of 20000 nM and an IC50 [2] of 3700 nM.

`C=CCCn1c([N+](=O)[O-])cnc1COP(=O)(N1CC1)N1CC1` [compound 2582] was tested, and the IC50 [1] was 18000 nM and the IC50 [2] was 100 nM.

Compound `Cc1cccc([N+](=O)[O-])c1COP(=O)(N1CC1)N1CC1` [compound 2588] has an IC50 [1] of 10000 nM and an IC50 [2] of 1300 nM.

`COc1ccc(COP(=O)(N2CC2)N2CC2)c([N+](=O)[O-])c1` [compound 2589] gave an IC50 [1] of 9600 nM and an IC50 [2] of 100 nM.

`Cc1ccc(COP(=O)(N2CC2)N2CC2)c([N+](=O)[O-])c1` [compound 2590] was tested, and the IC50 [1] was 15000 nM and the IC50 [2] was 2900 nM.

In the case of `Cn1c([N+](=O)[O-])cnc1C(Cc1ccccc1)OP(=O)(N1CC1)N1CC1` (stereo not drawn) [compound 2591], the IC50 [1] is reported as 19000 nM and the IC50 [2] is reported as 100 nM.

In the case of `O=[N+]([O-])c1cc(Cl)ccc1COP(=O)(N1CC1)N1CC1` [compound 2592], the IC50 [1] is reported as 3300 nM and the IC50 [2] is reported as 700 nM.

`CCCCn1c([N+](=O)[O-])cnc1COP(=O)(N1CC1)N1CC1` [compound 2594] showed an IC50 [1] of 7400 nM and an IC50 [2] of 150 nM.
